Assay results as given in patent publication US10392383B2, “3-(1H-benzo[d]imidazol-2-yl)-1H-pyrazolo[4,3-b]pyridines and therapeutic uses thereof” (Samumed, LLC, priority 2015, dated 2019).

Columns and labels:
Assay type in all cases: cell-based
[1] = test system: Wnt activity (Sp5-Luc reporter, Wnt-responsive promoter) in SW480 colon carcinoma cells; experiment: Wnt activity screening assay: Sp5-Luc reporter gene assay in SW480 cells; conditions: Homo sapiens; for EC50: overnight incubation, 10-point curve starting from 10 μM; for inhibition at 10 µM: read-out: percent inhibition at 10 μM (given for EC50 of >10 μM)
Text: The screening assay for Wnt activity is described as follows. Reporter cell lines can be generated by stably transducing cancer cell lines (e.g., colon cancer) or primary cells (e.g., IEC-6 intestinal cells) with a lentiviral construct that includes a Wnt-responsive promoter driving expression of the firefly luciferase gene.
SW480 colon carcinoma cells were transduced with a lentiviral vector expressing luciferase with a human Sp5 promoter consisting of a sequence of eight TCF/LEF binding sites. SW480 cells stably expressing the Sp5-Luc reporter gene and a hygromycin resistance gene were selected by treatment with 150 μg/mL of hygromycin for 7 days. These stably transduced SW480 cells were expanded in cell culture and used for all further screening activities. Each compound was dissolved in DMSO as a 10 mM stock and used to prepare compound source plates. Serial dilution (1:3, 10-point dose-response curves starting from 10 μM) and compound transfer was performed using the ECHO 550 (Labcyte, Sunnyvale, Calif.) into 384-well white solid bottom assay plates (Greiner Bio-One) with appropriate DMSO backfill for a final DMSO concentration of 0.1%. For Sp5-Luc reporter gene assays, the cells were plated at 4,000 cells/well in 384-well plates with medium containing 1% fetal bovine serum and incubated overnight at 37° C. and 5% CO2. Following incubation, 20 μl of BrightGlo luminescence reagent (Promega) was added to each well of the 384-well assay plates. The plates were placed on an orbital shaker for 2 min and then luminescence was quantified using the Envision (Perkin Elmer) plate reader. Readings were normalized to DMSO only treated cells, and normalized activities were utilized for EC50 calculations using the dose-response log (inhibitor) vs. response-variable slope (four parameters) nonlinear regression feature available in GraphPad Prism 5.0 (or Dotmatics). For EC50 of >10 μM, the percent inhibition at 10 μM is provided.

[2] = test system: SW480 colon cancer cells; experiment: Cell viability assay (CellTiter-Blue) in SW480 cells; conditions: Homo sapiens, 96 h, four days; for EC50: CellTiter-Blue, 10 μM to 0.0045 μM; for inhibition at 10 µM: read-out: percent inhibition at 10 μM (given for EC50 of >10 μM)
Method: Representative compounds were screened using the following assay procedure to assess the effect on cell viability as described below.
Each compound was dissolved in DMSO as a 10 mM stock and used to prepare compound source plates. Serial dilution (1:3, 8-point dose-response curves from 10 μM to 0.0045 μM) and compound transfer was performed using the ECHO 550 (Labcyte, Sunnyvale, Calif.) into 96-well clear bottom, black-walled plates (Corning-Costar).
Approximately 2×10^3 SW480 colon cancer cells were seeded into each well and allowed to incubate in the presence or absence of compound for four days at 37° C./5% CO2. Eight replicates of DMSO-treated cells served as controls and cells treated with compound were performed in duplicate.
After incubation, 20 μL of CellTiter-Blue (Promega) was added to each well allowed to incubate for approximately 3 hours. This reagent was a buffered solution which contains resazurin, metabolically active cells were able to reduce rezarurin (blue) into resorufin (pink) which was highly fluorescent. This measured fluorescence was used as a readout for cell viability.
After incubation, the plates were read at Ex 560 nm Em 590 nm (Cytation 3, BioTek). Dose-response curves were generated and EC50 concentration values were calculated using non-linear regression curve fit in the GraphPad Prism (San Diego, Calif.) or Dotmatics' Studies Software (Bishops Stortford, UK). For EC50 of >10 μM, the percent inhibition at 10 μM is provided.

[3] = test system: primary human fibroblasts derived from IPF patients (LL29 cells) treated with TGF-β1; experiment: Inhibition of the fibrotic process: αSMA staining in TGF-β1-treated LL29 fibroblasts; conditions: Fibroblast; for EC50: 96 h, LL29 fibroblasts treated with TGF-β1 (20 ng/mL), 4 days, Table 4; for inhibition at 10 µM: LL29 fibroblasts treated with TGF-β1, Table 4, read-out: percent inhibition at 10 μM (given in parentheses for EC50 >10 μM)
Text: Representative compounds were screened using primary human fibroblasts (derived from IPF patients) treated with TGF-β1 to determine their ability to inhibit the fibrotic process.
Human Fibroblast Cell Culture: Primary human fibroblasts derived from IPF patients (LL29 cells) [^1Xiaoqiu Liu, et. al., “Fibrotic Lung Fibroblasts Show Blunted Inhibition by cAMP Due to Deficient cAMP Response Element-Binding Protein Phosphorylation”, Journal of Pharmacology and Experimental Therapeutics (2005), 315(2), 678-687; ^2Watts, K. L., et. al., “RhoA signaling modulates cyclin D1 expression in human lung fibroblasts; implications for idiopathic pulmonary fibrosis”, Respiratory Research (2006), 7(1), 88] were obtained from American Type Culture Collection (ATCC) and expanded in F12 medium supplemented with 15% Fetal Bovine Serum and Penicillin/Streptomycin.
Compound Screening: Each compound was dissolved in DMSO as a 10 mM stock and used to prepare compound source plates. Serial dilution (1:2, 11-point dose-response curves from 10 μM to […]) and compound transfer was performed using the ECHO 550 (Labcyte, Sunnyvale, Calif.) into 384-well clear bottom assay plates (Greiner Bio-One) with appropriate DMSO backfill for a final DMSO concentration of 0.1%. LL29 cells are plated at 1,500 cells/well in 80 μL/well F12 medium supplemented with 1% Fetal Bovine Serum. One hour after addition of the cells, TGF-β1 (Peprotech; 20 ng/mL) was added to the plates to induce fibrosis (ref. 1 and 2 above). Wells treated with TGF-β1 and containing DMSO were used as controls. Cells were incubated at 37° C. and 5% CO2 for 4 days. Following incubation for 4 days, SYTOX green nucleic acid stain (Life Technologies [Thermo Fisher Scientific]) was added to the wells at a final concentration of 1 μM and incubated at room temperature for 30 min. Cells were then fixed using 4% formaldehyde (Electron Microscopy Sciences), washed 3 times with PBS followed by blocking and permeabilization using 3% Bovine Serum Albumin (BSA; Sigma) and 0.3% Triton X-100 (Sigma) in PBS. Cells were then stained with antibody specific to α-smooth muscle actin (αSMA; Abcam) (ref. 1 and 2 above) in 3% Bovine Serum Albumin (BSA; Sigma) and 0.3% Triton X-100 (Sigma) in PBS, and incubated overnight at 4° C. Cells were then washed 3 times with PBS, followed by incubation with Alexa Flor-647 conjugated secondary antibody (Life Technologies [Thermo Fisher Scientific]) and DAPI at room temperature for 1 hour. Cells were then washed 3 times with PBS and plates were sealed for imaging. αSMA staining was imaged by excitation at 630 nm and emission at 665 nm and quantified using the Compartmental Analysis program on the CellInsight CX5 (Thermo Scientific). Dead or apoptotic cells were excluded from analysis based on positive SYTOX green staining. % of total cells positive for αSMA were counted in each well and normalized to the average of 11 wells treated with TGF-β1 on the same plate using Dotmatics' Studies Software. The normalized averages (fold change over untreated) of 3 replicate wells for each compound concentration were used to create dose-responses curves and EC50 values were calculated using non-linear regression curve fit in the Dotmatics' Studies Software. For EC50 of >10 μM, the percent inhibition at 10 μM is provided.

c1ccc(CNCc2cncc(-c3ccc4[nH]nc(-c5nc6c(-c7cccnc7)cccc6[nH]5)c4n3)c2)cc1 [Compound 108, N-Benzyl-1-(5-(3-(4-(pyridin-3-yl)-1H-benzo[d]imidazol-2-yl)-1H-pyrazolo [4,3-b]pyridin-5-yl)pyridin-3-yl)methanamine]
EC50 [1]: 2.3 µM
EC50 [2]: 3.18 µM
EC50 [3]: 2.54 µM

Cc1ccncc1-c1ccc2[nH]nc(-c3nc4c(-c5ccncc5)cccc4[nH]3)c2n1 [Compound 117, 5-(4-Methylpyridin-3-yl)-3-(4-(pyridin-4-yl)-1H-benzo[d]imidazol-2-yl)-1H-pyrazolo[4,3-b]pyridine]
inhibition at 10 µM [1]: 44.9%
EC50 [1]: > 10 µM
inhibition at 10 µM [2]: 16.9%
EC50 [2]: > 10 µM
inhibition at 10 µM [3]: 0%
EC50 [3]: > 10 µM

O=C(Cc1ccccc1)Nc1cncc(-c2ccc3[nH]nc(-c4nc5c(-c6ccncc6)cccc5[nH]4)c3n2)c1 [Compound 122, 2-Phenyl-N-(5-(3-(4-(pyridin-4-yl)-1H-benzo[d]imidazol-2-yl)-1H-pyrazolo [4,3-b]pyridin-5-yl)pyridin-3-yl)acetamide]
inhibition at 10 µM [1]: 44.4%
EC50 [1]: > 10 µM
EC50 [2]: 1.45 µM
EC50 [3]: 4.97 µM

CCCC(=O)Nc1cncc(-c2ccc3[nH]nc(-c4nc5c(-c6ccncc6)cccc5[nH]4)c3n2)c1 [Compound 129, N-(5-(3-(4-(Pyridin-4-yl)-1H-benzo[d]imidazol-2-yl)-1H-pyrazolo[4,3-b]pyridin-5-yl)pyridin-3-yl)butyramide]
inhibition at 10 µM [1]: 0%
EC50 [1]: > 10 µM
inhibition at 10 µM [2]: 0%
EC50 [2]: > 10 µM
inhibition at 10 µM [3]: 0%
EC50 [3]: > 10 µM

c1cc(-c2ccncc2)c2nc(-c3n[nH]c4ccc(-c5ccncc5)nc34)[nH]c2c1 [Compound 130, 5-(Pyridin-4-yl)-3-(4-(pyridin-4-yl)-1H-benzo[d]imidazol-2-yl)-1H-pyrazolo [4,3-b]pyridine]
inhibition at 10 µM [1]: 39.7%
EC50 [1]: > 10 µM
inhibition at 10 µM [2]: 23.4%
EC50 [2]: > 10 µM
EC50 [3]: 1.07 µM

O=C(Nc1cncc(-c2ccc3[nH]nc(-c4nc5c(-c6ccncc6)cccc5[nH]4)c3n2)c1)C1CCCCC1 [Compound 135, N-(5-(3-(4-(pyridin-4-yl)-1H-benzo[d]imidazol-2-yl)-1H-pyrazolo[4,3-b]pyridin-5-yl)pyridin-3-yl)cyclohexanecarboxamide]
inhibition at 10 µM [1]: 5.4%
EC50 [1]: > 10 µM
inhibition at 10 µM [2]: 1%
EC50 [2]: > 10 µM
inhibition at 10 µM [3]: 0%
EC50 [3]: > 10 µM

CCNCc1cncc(-c2ccc3[nH]nc(-c4nc5c(-c6ccccn6)cccc5[nH]4)c3n2)c1 [Compound 146, N-((5-(3-(4-(Pyridin-2-yl)-1H-benzo[d]imidazol-2-yl)-1H-pyrazolo[4,3-b]pyridin-5-yl)pyridin-3-yl)methyl)ethanamine]
inhibition at 10 µM [1]: 41.6%
EC50 [1]: > 10 µM
EC50 [2]: 1.56 µM
EC50 [3]: 3.68 µM

O=C(Nc1cncc(-c2ccc3[nH]nc(-c4nc5c(-c6ccccn6)cccc5[nH]4)c3n2)c1)c1ccccc1 [Compound 151, N-(5-(3-(4-(Pyridin-2-yl)-1H-benzo[d]imidazol-2-yl)-1H-pyrazolo[4,3-b]pyridin-5-yl)pyridin-3-yl)benzamide]
inhibition at 10 µM [1]: 34.2%
EC50 [1]: > 10 µM
inhibition at 10 µM [2]: 20.8%
EC50 [2]: > 10 µM
EC50 [3]: 5.11 µM

CCCCC(=O)Nc1cncc(-c2ccc3[nH]nc(-c4nc5c(-c6ccccn6)cccc5[nH]4)c3n2)c1 [Compound 159, N-(5-(3-(4-(Pyridin-2-yl)-1H-benzo[d]imidazol-2-yl)-1H-pyrazolo[4,3-b]pyridin-5-yl)pyridin-3-yl)pentanamide]
inhibition at 10 µM [1]: 11.3%
EC50 [1]: > 10 µM
inhibition at 10 µM [2]: 11%
EC50 [2]: > 10 µM
EC50 [3]: 0.948 µM
